US8093241B2, “Acid amide derivatives, process for their production and pesticides containing them” (Ishihara Sangyo Kaisha, Ltd., priority 2001, dated 2012)

System: Southern Root-Knot Nematode (Meloidgyne incognita)
Assay: Test on southern root-knot nematode (soil incorporation)
Type: in vivo
Design: key: 0: No knot was formed; 1: Knots were formed to a slight degree; 2: Knots were formed to a moderate degree; 3: Knots were formed to a heavy degree; 4: Knots were formed to the heaviest degree
Details: 7 ml of 1600 ppm solution to 300 ml contaminated soil, tomato seedling, three to four weeks after transplantation
Experimental: Test on Southern Root-Knot Nematode (Meloidgyne incognita) (Soil Incorporation)
To 300 ml of the soil contaminated by southern root-knot nematode, 7 ml of a chemical solution having the concentration of the compound of the present invention adjusted to be 1600 ppm, is poured, followed by mixing so that the compound is uniformly dispersed. The treated soil is put into a pot (diameter: 9 cm, height: 8 cm), and then a tomato seedling in 2-leaf stage is transplanted and placed in a greenhouse. After three to four weeks from the transplantation of the tomato, the root knot index is determined based on the following standards. […] For example, the compound Nos. 1-25, 1-26, 1-73, 1-100, 1-122, 1-123, 1-125, 1-127, 1-130, 1-131, 1-133, 1-136, 1-137, 1-139, 1-140, 1-172, 1-173, 1-177, 5-5, 5-9, 5-11, 5-16, 5-20, 8-2, 8-5, 13-2, 13-4, 13-6, 13-7, 13-18, 13-19, 13-44, 13-45, 16-32, 16-37 and 16-38 were at a level of a root knot index of not more than 1.

Q: For “2-fluoro-N-[2-[(2,2,3,3,-tetrafluoro-5-methyl-1,4-benzodioxan-6-yl)carbonyl]-2-propyl]benzamide [Compound No. 16-37]”, which root knot index is on record?
A: 1

Q: Which root knot index does the source give for `CC(C)(NC(=O)c1c(F)cccc1F)C(=O)c1ccc(OS(C)(=O)=O)cc1` [Compound No. 1-25, 2,6-difluoro-N-[(1,1-dimethyl-4′-methylsulfonyloxy)phenacyl]benzamide] here?
A: 1

Q: With `CC(C)(NC(=O)c1c(F)cccc1F)C(=O)c1ccc(OS(=O)(=O)C(F)(F)F)cc1` [Compound No. 1-26, 2,6-difluoro-N-[(1,1-dimethyl-4′-trifluoromethylsulfonyloxy)phenacyl]benzamide] as the compound, how does the root knot index read?
A: 1

Q: With `CC(C)(NC(=O)c1ccccc1C(N)=O)C(=O)c1ccc(Cl)cc1` [Compound No. 1-122, 2-aminocarbonyl-N-[(4′-chloro-1,1-dimethyl)phenacyl]benzamide] as the compound, how does the root knot index read?
A: 1

System: not given
Assay: not given
Details: not given

Q: For `CC(C)(NC(=O)c1c(F)cccc1F)C(=O)c1ccsc1` [Compound No. 6-5, 2,6-difluoro-N-[1-methyl-1-(3-thenoyl)ethyl]benzamide], which melting point is on record?
A: 139 to 142 °C

Q: For `CC(C)(NC(=O)c1c(F)cccc1F)C(=O)c1ccc(C(F)(F)F)cn1` [Compound No. 8-43, 2,6-difluoro-N-[2-(5-trifluoromethyl-2-pyridylcarbonyl)-2-propyl]benzamide], which melting point is on record?
A: 116 to 119 °C
